Test results taken from US9487554B2, “Estra-1,3,5(10),16-tetraene-3-carboxamide derivatives, processes for their preparation, pharmaceutical preparations comprising them and their use for preparing medicaments” (BAYER INTELLECTUAL PROPERTY GmbH, priority 2011, dated 2016).
Values joined by “and” are separate entries in the source; they are usually repeats but may differ in a detail not shown here. Equal values may be shown once.

Key:
Human CYP17A1 = Human CYP17A1 (Homo sapiens (Human), UniProt P05093); assay: Inhibition of CYP17A1 (recombinant enzyme, progesterone hydroxylation, HPLC radio detection); type: biochemical; details: human CYP17A1 expressed in E. coli, mean of 3 or 4 independent IC50 values; for IC50: read-out: IC50 ± SD CYP17
Human CYP17A1, sequence (P05093 whole entry): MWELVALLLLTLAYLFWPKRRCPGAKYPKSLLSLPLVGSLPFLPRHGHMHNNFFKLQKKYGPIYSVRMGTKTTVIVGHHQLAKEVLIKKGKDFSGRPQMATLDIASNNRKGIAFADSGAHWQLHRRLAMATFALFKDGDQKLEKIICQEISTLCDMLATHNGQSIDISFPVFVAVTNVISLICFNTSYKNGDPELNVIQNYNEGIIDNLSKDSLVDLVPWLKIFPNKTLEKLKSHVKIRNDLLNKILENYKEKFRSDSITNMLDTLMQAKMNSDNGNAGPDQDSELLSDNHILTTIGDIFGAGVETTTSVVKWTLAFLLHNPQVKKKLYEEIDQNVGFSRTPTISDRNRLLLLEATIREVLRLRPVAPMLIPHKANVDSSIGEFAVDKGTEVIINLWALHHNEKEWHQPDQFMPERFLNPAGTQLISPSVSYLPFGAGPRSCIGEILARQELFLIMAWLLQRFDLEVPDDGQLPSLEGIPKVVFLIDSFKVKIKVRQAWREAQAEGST
Description: The inhibition of CYP17A1 by the test compounds was evaluated using a recombinant enzyme. Human CYP17A1 was expressed in E. coli (Ehmer, P. B. et al.; J. Steroid Biochem. Mol. Biol., 75, 57-63 (2000)). The microsomal fraction and 140 μL of phosphate buffer (50 mM Na phosphate, 1 mM MgCl2, 0.1 mM EDTA, 0.1 mM dithiothreitol, pH 7.4) were preincubated separately with a mixture of progesterone (24.95 μM) and ^3H-progesterone (0.05 μM, 101.3 Ci/mmol), […] of an NADPH regeneration system (in phosphate buffer with 10 mM NADP+, 100 mM glucose 6-phosphate and 2.5 U of glucose 6-phosphate dehydrogenase) and the appropriate test substances (in 5 μl of DMSO) at 37° C. for 5 minutes. The reaction was started by addition of the enzyme and, after 30 minutes of incubation at 37° C., stopped by addition of 50 μl of 1N hydrochloric acid.
The steroids were extracted with ethyl acetate. After evaporation of the organic phase, the steroids were taken up in acetonitrile. 16α-Hydroxyprogesterone, 17α-hydroxyprogesterone and progesterone were separated using acetonitrile/water (45:55) as mobile phase on a C18 reverse-phase chromatography column (Nucleodur C18 Gravity, 3 μm, Macherey-Nagel, Düren, Germany) on an HPLC system (Agilent 1100 Series, Agilent Technologies, Waldbronn, Germany). Detection and quantification of the steroids was carried out using a radio flow detector (Berthold Technologies, Bad Wildbad, Germany). The inhibition was calculated using the formula below: […]
Each value was calculated from at least three independent experiments. The final IC50 value was calculated as the mean of 3 or 4 independent IC50 values.

recombinant human AKR1C3 = recombinant human AKR1C3 (Homo sapiens (Human), UniProt P42330); assay: AKR1C3 enzyme inhibition assay (Coumberone to Coumberol fluorescence); type: biochemical; details: individual experimental determinations
recombinant human AKR1C3, sequence (P42330 whole entry): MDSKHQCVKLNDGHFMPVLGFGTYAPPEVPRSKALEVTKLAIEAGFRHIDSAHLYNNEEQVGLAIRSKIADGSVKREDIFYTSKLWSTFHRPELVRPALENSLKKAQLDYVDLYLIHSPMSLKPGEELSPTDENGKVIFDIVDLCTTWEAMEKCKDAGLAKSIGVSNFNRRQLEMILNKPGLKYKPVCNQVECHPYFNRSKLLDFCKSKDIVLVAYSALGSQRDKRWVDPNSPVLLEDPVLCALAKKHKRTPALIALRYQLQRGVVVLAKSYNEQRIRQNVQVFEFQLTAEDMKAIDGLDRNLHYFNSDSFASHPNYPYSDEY
Description: The AKR1C3-inhibitory activity of the substances of the present invention was measured in the AKR1C3 assay described in the paragraphs below.
Essentially, the enzyme activity is measured by quantification of the Coumberol from Coumberone (Halim, M., Yee, D. J., and Sames, D., J. AM. CHEM. SOC. 130, 14123-14128 (2008) and Yee, D. J., Balsanek, V., Bauman, D. R., Penning, T. M., and Sames, D., Proc. Natl. Acad. Sci. USA 103, 13304-13309 (2006)). In this test, the increase of the highly fluorescent Coumberol by NADPH—(nicotinamide adenine dinucleotide phosphate)-dependent reduction of the non-fluorescent Coumberone by AKR1C3 can be determined.
The enzyme used was recombinant human AKR1C3 (Aldo-keto reductase family 1 member C3) (GenBank Accession No. NM_003739). This was expressed in E. coli as GST (glutathione S transferase) fusion protein and purified by glutathione Sepharose affinity chromatography. The GST was removed by digestion with thrombin and subsequent size exclusion chromatography (Dufort, I., Rheault, P., Huang, X F., Soucy, P., and Luu-The, V., Endocrinology 140, 568-574 (1999)).
For the assay, 50 nl of a 100-fold concentrated solution of the test substance in DMSO were pipetted into a black low-volume 384-well microtiter plate (Greiner Bio-One, Frickenhausen, Germany), 2.0 μl of a solution of AKR1C3 in assay buffer [50 mM potassium phosphate buffer pH 7, 1 mM DTT, 0.0022% (w/v) Pluronic F-127, 0.01% BSA (w/v) and protease inhibitor cocktail (Complete, EDTA-free Protease Inhibitor Cocktail from Roche)] were added and the mixture was incubated for 15 min to allow pre-binding of the substances to the enzyme prior to the enzyme reaction. The enzyme reaction was then started by addition of 3 μl of a solution of NADPH (16.7 μM→final concentration in 5 μl of assay volume is 10 μM) and Coumberone (0.5 μM→final concentration in 5 μl of assay volume is 0.3 μM) in assay buffer, and the resulting mixture was incubated at 22° C. for the reaction time of 90 min. The concentration of the AKR1C3 was adapted to the respective activity of the enzyme preparation and adjusted such that the assay was carried out in the linear range. Typical concentrations were in the region of 1 nM. The reaction was stopped by addition of 5 μl of a stop solution consisting of the inhibitor EM-1404 [F. Labrie et al. U.S. Pat. No. 6,541,463, 2003] (2 μM→final concentration in […] is 1 μM). The fluorescence of the Coumberole was then measured at 520 nm (excitation at 380 nm) using a suitable measuring instrument (Pherastar from BMG Labtechnologies). The intensity of the fluorescence was used as a measure of the amount of Coumberole formed and thus of the enzyme activity of AKR1C3. The data were normalized (enzyme reaction without inhibitor=0% inhibition; all other assay components, but no enzyme=100% inhibition).

SMILES	IC50 (Human CYP17A1)	IC50 (recombinant human AKR1C3)	IC50 ± SD CYP17 (Human CYP17A1)
C[C@]12CC[C@H](O)CC1=CC[C@@H]1[C@@H]2CC[C@]2(C)C(c3cccnc3)=CC[C@@H]12 [Abiraterone, abiraterone, reference compound]	29 ± 4 nM	–	–
CC(C)(CNC(=O)c1ccc2c(c1)CC[C@@H]1[C@@H]2CC[C@]2(C)C(c3cncc(F)c3)=CC[C@@H]12)C(=O)O [Example 5, 3-({[17-(5-Fluoropyridin-3-yl)estra-1,3,5(10),16-tetraen-3-yl]carbonyl}amino)-2,2-dimethylpropanoic acid]	85500 ± 7700 nM	9.1 nM and 8 nM and 4.3 nM and 3.6 nM	–
C[C@]12CC[C@@H]3c4ccc(C(=O)NCCC(=O)O)cc4CC[C@H]3[C@@H]1CC=C2c1cncc(F)c1 [Example 9, N-{[17-(5-Fluoropyridin-3-yl)estra-1,3,5(10),16-tetraen-3-yl]carbonyl}-β-alanine]	–	8.3 nM and 8.9 nM (2×)	No inhibition
C[C@]12CC[C@@H]3c4ccc(C(=O)NCC(=O)O)cc4CC[C@H]3[C@@H]1CC=C2c1cncc(F)c1 [Example 10, N-{[17-(5-Fluoropyridin-3-yl)estra-1,3,5(10),16-tetraen-3-yl]carbonyl}glycine]	15200 ± 1580 nM	4.9 nM and 7.3 nM	–
C[C@]12CC[C@@H]3c4ccc(C(=O)NCCCC(=O)O)cc4CC[C@H]3[C@@H]1CC=C2c1cncnc1 [Example 18, 4-({[17-(Pyrimidin-5-yl)estra-1,3,5(10),16-tetraen-3-yl]carbonyl}amino)butanoic acid]	–	23.5 nM and 31.8 nM	–
CN(CCC(=O)O)C(=O)c1ccc2c(c1)CC[C@@H]1[C@@H]2CC[C@]2(C)C(c3cncnc3)=CC[C@@H]12 [Example 19, N-Methyl-N-{[17-(pyrimidin-5-yl)estra-1,3,5(10),16-tetraen-3-yl]carbonyl}-β-alanine]	–	26.7 nM (2×) and 17.8 nM	–
CC(C)(CNC(=O)c1ccc2c(c1)CC[C@@H]1[C@@H]2CC[C@]2(C)C(c3cncnc3)=CC[C@@H]12)C(=O)O [Example 20, 2,2-Dimethyl-3-({[17-(pyrimidin-5-yl)estra-1,3,5(10),16-tetraen-3-yl]carbonyl}amino)-propanoic acid]	–	45.5 nM and 46.3 nM	–
C[C@]12CC[C@@H]3c4ccc(C(=O)NCCC(=O)O)cc4CC[C@H]3[C@@H]1CC=C2c1cncc(C(F)(F)F)c1 [Example 21, N-({17-[5-(Trifluoromethyl)pyridin-3-yl]estra-1,3,5(10),16-tetraen-3-yl}carbonyl)-β-alanine]	–	8.5 nM	–
CN(CCC(=O)O)C(=O)c1ccc2c(c1)CC[C@@H]1[C@@H]2CC[C@]2(C)C(c3cncc(C(F)(F)F)c3)=CC[C@@H]12 [Example 22, N-Methyl-N-({17-[5-(trifluoromethyl)pyridin-3-yl]estra-1,3,5(10),16-tetraen-3-yl}carbonyl)-β-alanine]	–	4.2 nM	–
C[C@]12CC[C@@H]3c4ccc(C(=O)N5CCC[C@H]5C(=O)O)cc4CC[C@H]3[C@@H]1CC=C2c1cncc(F)c1 [Example 23, N-{[17-(5-Fluoropyridin-3-yl)estra-1,3,5(10),16-tetraen-3-yl]carbonyl}-L-proline]	–	1.9 nM	–
C[C@]12CC[C@@H]3c4ccc(C(=O)N5CCC[C@@H]5C(=O)O)cc4CC[C@H]3[C@@H]1CC=C2c1cncc(F)c1 [Example 24, N-{[17-(5-Fluoropyridin-3-yl)estra-1,3,5(10),16-tetraen-3-yl]carbonyl}-D-proline]	–	5.3 nM	–
C[C@]12C[C@H](F)[C@@H]3c4ccc(C(=O)NCCCC(=O)O)cc4CC[C@H]3[C@@H]1CC=C2c1cncc(F)c1 [Example 25, 4-({[11β-Fluoro-17-(5-fluoropyridin-3-yl)estra-1,3,5(10),16-tetraen-3-yl]carbonyl}-amino)butanoic acid]	–	29.1 nM and 16.8 nM	–
CN(CCC(=O)O)C(=O)c1ccc2c(c1)CC[C@H]1[C@@H]3[C@@H](O)C=C(c4cncc(F)c4)[C@@]3(C)CC[C@H]21 [Example 26, N-{[17-(5-Fluoropyridin-3-yl)-15α-hydroxyestra-1,3,5(10),16-tetraen-3-yl]carbonyl}-N-methyl-β-alanine]	–	11 nM and 16.6 nM	–
CN(CCC(=O)O)C(=O)c1ccc2c(c1)CC[C@H]1[C@@H]3[C@H](O)C=C(c4cncc(F)c4)[C@@]3(C)CC[C@H]21 [Example 27, N-{[17-(5-Fluoropyridin-3-yl)-15β-hydroxyestra-1,3,5(10),16-tetraen-3-yl]carbonyl}-N-methyl-β-alanine]	–	35.3 nM and 24.2 nM	–
Cc1cc(C2=CC[C@H]3[C@@H]4CCc5cc(C(=O)N(C)CCC(=O)O)ccc5[C@H]4CC[C@]23C)cnn1 [Example 28, N-Methyl-N-{[17-(6-methylpyridazin-4-yl)estra-1,3,5(10),16-tetraen-3-yl]carbonyl}-β-alanine]	–	0.5 nM	–
CN(CCC(=O)O)C(=O)c1ccc2c(c1)CC[C@@H]1[C@@H]2CC[C@]2(C)C(c3cccnc3)=CC[C@@H]12 [Example 29, N-Methyl-N-{[17-(pyridin-3-yl)estra-1,3,5(10),16-tetraen-3-yl]carbonyl}-β-alanine]	–	2.5 nM	–
COc1cncc(C2=CC[C@H]3[C@@H]4CCc5cc(C(=O)NCCCC(=O)O)ccc5[C@H]4CC[C@]23C)c1 [Example 30, 4-({[17-(5-Methoxypyridin-3-yl)estra-1,3,5(10),16-tetraen-3-yl]carbonyl}amino)butanoic acid]	–	7.3 nM and 11.2 nM	–
